Measured values: patent US12492174B2, “Morpholine-3-carboxamide derivatives as prostaglandin E2 receptor 4 (EP4) agonists for the treatment of gastrointestinal and pulmonary diseases” (NXERA PHARMA UK LIMITED, priority 2022, dated 2025)

Experiments:
[1] = Unidirectional Caco-2 cell permeability assay; format: in vitro ADME; conditions: human, n=2, apical pH 6.5, basolateral pH 7.4, 1 hour, 37° C.
Description: Caco-2 cells (ECACC) were seeded onto 24-well Transwell plates at 2×10^5 cells per well and used in confluent monolayers after a 21 day culture at 37° C. under 5% CO2. Test compounds were incubated at 10 μM, 0.2% DMSO final, n=2 in assay buffer (Hanks balanced salt solution supplemented with 25 mM HEPES, adjusted to pH 6.5). Hanks balanced salt solution supplemented with 25 mM HEPES, adjusted to pH 7.4 (0.2% DMSO final) was used for the basolateral chamber (as receiver).
Incubations were performed at 37° C., with samples removed from both donor and acceptor chambers at T=0 and 1 hour and compound analysed by mass spectrometry (LC-MS/MS) including an analytical internal standard (0.5 μM carbamazepine).
Apparent permeability (Papp) values are shown in Table 4 and were determined from the relationship:
Where V is the volume of each Transwell compartment (apical 125 μL, basolateral 600 μL), and concentrations are the relative MS responses for compound (normalized to internal standard) in the donor chamber before incubation and acceptor chamber at the end of the incubation Area=area of cells exposed for drug transfer (0.33 cm^2).
Lucifer Yellow (LY) was added to the apical buffer in all wells to assess viability of the cell layer. As LY cannot freely permeate lipophilic barriers, a high degree of LY transport indicates poor integrity of the cell layer and wells with a LY Papp>10×10^−6 cm/s were rejected.
Compound recovery from the wells was determined from MS responses (normalized to internal standard) in donor and acceptor chambers at the end of incubation compared to response in the donor chamber pre-incubation.

human EP4 = molecular target: T1, human EP4 (Homo sapiens, UniProt P35408); test: cAMP Gs functional assay (HTRF cAMP dynamic-2); format: cell-based; conditions: for Emax: HEK293, HEK293 cells transfected with EP4 Bacmam virus, positive control 10 uM PGE2; for EC50: HEK293 cells transfected with EP4 Bacmam virus, 30 mins at 37° C., −Log of the molarity (M), read-out: cAMP human EP4 pEC50 (converted)
T1 construct: expressed in transfected cells; host or cells: HEK293 cells transduced with EP4 BacMam virus
Description: Cloning, Baculovirus generation, large scale infection of HEK293 cells and membrane preparation: Human prostaglandin E2 receptor 4 (EP4) was cloned into pBacMam expression vector (GeneScript, UK). Transposition of EP4 DNA was performed using Invitrogen's Bac-to-Bac Baculovirus Expression Systems. P0 baculovirus was generated by transfecting SF9 Cells with bacmid DNA using Cellfectin II transfection reagent (ThermoFisher Scientific, UK). Following P0 generation P1 virus was then generated ready for large scale infection and membrane preparation. HEK293 cells were grown in DMEM (ThermoFisher Scientific, UK), supplemented with 10% heat inactivated fetal bovine serum (FBS). Cells were infected at a seeding density of 3.5 million cells/mL in 500 cm^3 flasks at 5% v/v EP4 Bacman. Expression was carried out over a 36 hr period at 37° C. with 5% CO2. The cells were removed using PBS and a cell scrapper. The cell culture was centrifuged at 2500 RPM for 10 mins at 4° C. The supernatant was then poured off and the pellet stored at −80° C. The pellet was defrosted and re-suspended in 15 mL of homogenising buffer (20 mM HEPES, 10 mM EDTA, pH 7.4). Then homogenised in mechanical homogeniser (VMR) for 10 seconds. The membrane was centrifuged in centrifuge tubes at 40,000 g for 15 mins at 4° C. The supernatant was poured away and re-suspended in 15 mL of homogenising buffer. Homogenised for 20 seconds. The membrane was centrifuged at 40,000 g for 45 mins at 4° C. The membrane was re-suspended in 3 mL of storage buffer (20 mM HEPES, 0.1 mM EDTA, pH 7.4) mixing well. The resulting membranes were then stored at −80° C.
cAMP Gs Functional Assay: cAMP production following EP4 receptor activation was determined using the Homogeneous Time-Resolved Fluorescence (HTRF) cAMP dynamic-2 assay (Cisbio, France). HEK293 cells were transfected using a 0.5% EP4 Bacmam virus for 36 hours, before dissociating the cells, and freezing at −150° C.
On the day of testing, increasing concentration of test compounds, alongside positive controls (10 uM PGE2 (Tocris, Abingdon, UK)) and negative control (DMSO (Sigma-Aldrich, UK) were added to a ProxiPlate-384 Plus, White 384-shallow well Mircoplate, (PerkinElmer, USA) using the ECHO dispense.
Cells were defrosted in a water bath and resuspended in DMEM supplemented with 10% FBS before centrifuging at 1200 RPM for 5 mins to form a pellet. The pellet was resuspended in assay buffer (DMEM+0.5 mM IBMX (Tocris, Abingdon, UK)) to 0.5×10^6 cells/mL. Cell suspension, for a final assay concentration of 5000 cell/well was added using the multidrop to the pre-dispensed assay plate. The plate was then incubated at 37° C. for 30 mins, with 5% CO2. The cAMP production was determined as manufacturer's instructions, before plates were read on a PheraStar fluorescence plate reader (BMG LabTech, Germany).
The pEC50 values (−Log of the molarity (M) in mol/liter) were calculated from the mid-point of the curve using dotmatics as shown in Table 3.

T1 sequence (P35408 whole entry): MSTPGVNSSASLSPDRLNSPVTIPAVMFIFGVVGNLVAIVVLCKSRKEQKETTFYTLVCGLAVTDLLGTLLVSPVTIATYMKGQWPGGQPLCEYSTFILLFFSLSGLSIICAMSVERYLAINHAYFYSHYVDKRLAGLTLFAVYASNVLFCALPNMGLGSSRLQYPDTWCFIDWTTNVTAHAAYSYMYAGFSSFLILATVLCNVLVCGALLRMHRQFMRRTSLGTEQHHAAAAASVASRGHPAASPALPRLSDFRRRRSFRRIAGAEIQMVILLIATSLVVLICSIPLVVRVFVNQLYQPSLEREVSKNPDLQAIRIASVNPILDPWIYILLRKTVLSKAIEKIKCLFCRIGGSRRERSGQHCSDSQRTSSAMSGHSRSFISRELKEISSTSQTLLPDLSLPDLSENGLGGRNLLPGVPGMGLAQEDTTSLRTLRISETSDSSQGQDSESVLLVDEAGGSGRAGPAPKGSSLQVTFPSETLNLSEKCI

| Papp A→B at 1 h, 10 μM [1] [×10⁻⁶ cm/s] | Emax (human EP4) [%] | EC50 (human EP4) [M] | SMILES |
| --- | --- | --- | --- |
| 0.12 | 98 | – | Cc1cc(S(N)(=O)=O)ccc1-c1ccnc(CN2CCOC[C@@H]2C(=O)N[C@@H](C)c2ccc(C(=O)O)cc2)c1 [Example 17, 4-[(1S)-1-[[(3R)-4-[[4-(2-methyl-4-sulfamoyl-phenyl)-2-pyridyl]methyl]morpholine-3-carbonyl]amino]ethyl]benzoic acid] |
| 0.5 | 95 | 6.31e-08 | Cc1cc(C(N)=O)ccc1-c1ccnc(CN2CCOC[C@@H]2C(=O)N[C@@H](C)c2ccc(C(=O)O)cc2)c1 [Example 4, 4-[(1S)-1-[[(3R)-4-[[4-(4-carbamoyl-2-methyl-phenyl)-2-pyridyl]methyl]morpholine-3-carbonyl]amino]ethyl]benzoic acid] |
| 0.24 | 96 | 1e-08 | Cc1cc(C(N)=O)ccc1-c1cncc(CN2CCOC[C@@H]2C(=O)N[C@@H](C)c2ccc(C(=O)O)cc2)c1 [Example 1, 4-((S)-1-((R)-4-((5-(4-carbamoyl-2-methylphenyl)pyridin-3-yl)methyl)morpholine-3-carboxamido)ethyl)benzoic acid] |
| 0.14 | 93 | 3.16e-12 | Cc1cc(C(N)=O)ccc1-c1cc(O)cc(CN2CCOC[C@@H]2C(=O)NC2(c3ccc(C(=O)O)cc3)CC2)c1 [Example 33, (R)-4-(1-(4-((4′-carbamoyl-5-hydroxy-2′-methyl-[1,1′-biphenyl]-3-yl)methyl)morpholine-3-carboxamido)cyclopropyl)benzoic acid] |
| 0.11 | 96 | 2.51e-10 | Cc1cc(C(N)=O)ccc1-c1cc(O)cc(CN2CCOC[C@@H]2C(=O)N[C@@H](C)c2ccc(-c3nnn[nH]3)cc2)c1 [Example 36, (R)—N-((S)-1-(4-(1H-tetrazol-5-yl)phenyl)ethyl)-4-((4′-carbamoyl-5-hydroxy-2′-methyl-[1,1′-biphenyl]-3-yl)methyl)morpholine-3-carboxamide] |
| 0.15 | 95 | 7.94e-08 | C[C@H](NC(=O)[C@H]1COCCN1Cc1cccc(-c2ccc(C(N)=O)cc2O)c1)c1ccc(C(=O)O)cc1 [Example 14, 4-((S)-1-((R)-4-((4′-carbamoyl-2′-hydroxy-[1,1′-biphenyl]-3-yl)methyl)morpholine-3-carboxamido)ethyl)benzoic acid] |
| 0.15 | 91 | 6.31e-10 | NC(=O)c1ccc(-c2cccc(CN3CCOC[C@@H]3C(=O)NC3(c4ccc(C(=O)O)cc4)CC3)c2)c(O)c1 [Example 32, (R)-4-(1-(4-((4′-carbamoyl-2′-hydroxy-[1,1′-biphenyl]-3-yl)methyl)morpholine-3-carboxamido)cyclopropyl)benzoic acid] |
| < 0.1 | 96 | 1.58e-07 | Cc1cc(C(N)=O)ccc1-c1cccc(CN2CCOC[C@@H]2C(=O)NCc2cc(F)c(C(=O)O)c(F)c2)c1 [Example 8, 4-[[[(3R)-4-[[3-(4-carbamoyl-2-methyl-phenyl)phenyl]methyl]morpholine-3-carbonyl]amino]methyl]-2,6-difluoro-benzoic acid] |
| < 0.2 | 99 | 2.51e-10 | Cc1cc(S(N)(=O)=O)ccc1-c1cc(O)cc(CN2CCOC[C@@H]2C(=O)N[C@@H](C)c2ccc(C(=O)O)c(O)c2)c1 [Example 22, 2-hydroxy-4-((S)-1-((R)-4-((5-hydroxy-2′-methyl-4′-sulfamoyl-[1,1′-biphenyl]-3-yl)methyl)morpholine-3-carboxamido)ethyl)benzoic acid] |
| 0.12 | 99 | 1.58e-08 | Cc1cc(S(N)(=O)=O)ccc1-c1cncc(CN2CCOC[C@@H]2C(=O)N[C@@H](C)c2ccc(C(=O)O)cc2)c1 [Example 12, 4-[(1S)-1-[[(3R)-4-[[5-(2-methyl-4-sulfamoyl-phenyl)-3-pyridyl]methyl]morpholine-3-carbonyl]amino]ethyl]benzoic acid] |
